Patent US20260062422A1 (Halda Therapeutics OpCo, Inc., priority 2022, published 2026)

What was measured:
[1] = test system: T-Rex 293 cell line SC3 cells having increased expression of androgen receptor protein due to exposure to doxycycline; assay: Cellular growth inhibition, T-Rex 293 SC3 cells with doxycycline (androgen receptor induced), CellTiter-Glo; assay type: cell-based; conditions: 72 h, T-Rex 293 SC3 cells with 10 ng/mL doxycycline (increased androgen receptor expression)
Method in brief: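 Cells of clone SC3 are seeded in charcoal-dextran-stripped serum medium with or without 10 ng/mL doxycycline to induce wild-type androgen receptor. After 24 h, serial compound dilutions are added at 0.5% DMSO and incubated 72 h at 37 °C. CellTiter-Glo 2.0 measures viability, giving GI50 values.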

[2] = test system: T47D cells; assay: Cellular growth inhibition assay for T47D cells, CellTiter-Glo; assay type: cell-based, human; conditions: Homo sapiens, T47D, 72 h, 72 hours treatment, CellTiter-Glo 2.0 cell viability
Method in brief: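 Luminescence from CellTiter-Glo 2.0 after 72 h of compound exposure gives the viability signal. Cells grew in insulin-supplemented (0.2 units/mL) DMEM with 10% FBS and were treated one day after seeding at 0.5% DMSO. GI50 values come from four-parameter nonlinear regression.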

| SMILES | GI50 [2] [nM] | GI50 [1] [nM] |
| --- | --- | --- |
| CCNC(=O)C[C@@H]1N=C(c2ccc(N3CCN(CC4CCN(c5ncc(C(=O)N[C@H]6C(C)(C)[C@H](Oc7ccc(C#N)c(Cl)c7)C6(C)C)cn5)CC4)CC3)cc2)c2c(sc(C)c2C)-n2c(C)nnc21 [Compound I-105, N-[3-(3-chloro-4-cyano-phenoxy)-2,2,4,4-tetramethyl-cyclobutyl]-2-[4-[[4-[4-[(9S)-9-[2-(ethylamino)-2-oxo-ethyl]-4,5,13-trimethyl-3-thia-1,8,11,12-tetrazatricyclo[8.3.0.02,6]trideca-2(6),4,7,10,12-pentaen-7-yl]phenyl]piperazin-1-yl]methyl]-1-piperidyl]pyrimidine-5-carboxamide] | < 500 | < 500 |
| Cc1sc2c(c1C)C(c1ccc(N3CC(C4CCN(c5ncc(C(=O)N[C@H]6C(C)(C)[C@H](Oc7ccc(C#N)c(Cl)c7)C6(C)C)cn5)CC4)C3)cc1)=NC(Cc1ncco1)c1nnc(C)n1-2 (stereo partly drawn) [Compound I-209] | < 500 | < 500 |
| CCNC(=O)C[C@@H]1N=C(c2ccc(Oc3ncc(C(=O)N[C@H]4C(C)(C)[C@H](Oc5ccc(C#N)c(Cl)c5)C4(C)C)cn3)cc2)c2c(sc(C)c2C)-n2c(C)nnc21 [Compound I-84] | 1500 to 3000 | 500 to 1500 |
| CCNC(=O)C[C@@H]1N=C(c2ccc(N(C3CC3)C3CN(CC4CCN(c5ncc(C(=O)N[C@H]6C(C)(C)[C@H](Oc7ccc(C#N)c(Cl)c7)C6(C)C)cn5)CC4)C3)cc2)c2c(sc(C)c2C)-n2c(C)nnc21 [Compound I-129] | 500 to 1500 | < 500 |
| CCNC(=O)C[C@@H]1N=C(c2ccc(N(C)CCN3CCN(c4ncc(C(=O)N[C@H]5C(C)(C)[C@H](Oc6ccc(C#N)c(Cl)c6)C5(C)C)cn4)CC3)cc2)c2c(sc(C)c2C)-n2c(C)nnc21 [Compound I-108] | 500 to 1500 | < 500 |
| CCNC(=O)C[C@@H]1N=C(c2ccc(OCCCCc3ncc(C(=O)N[C@H]4C(C)(C)[C@H](Oc5ccc(C#N)c(Cl)c5)C4(C)C)cn3)cc2)c2c(sc(C)c2C)-n2c(C)nnc21 [Compound I-86] | 500 to 1500 | < 500 |
| Cc1sc2c(c1C)C(c1ccc(OC3CC4(CCN(c5ncc(C(=O)N[C@H]6C(C)(C)[C@H](Oc7ccc(C#N)c(Cl)c7)C6(C)C)cn5)CC4)C3)cc1)=N[C@@H](Cc1ncco1)c1nnc(C)n1-2 [Compound I-49, N-[3-(3-chloro-4-cyano-phenoxy)-2,2,4,4-tetramethyl-cyclobutyl]-2-[2-[4-[(9S)-4,5,13-trimethyl-9-(oxazol-2-ylmethyl)-3-thia-1,8,11,12-tetrazatricyclo[8.3.0.02,6]trideca-2(6),4,7,10,12-pentaen-7-yl]phenoxy]-7-azaspiro[3.5]nonan-7-yl]pyrimidine-5-carboxamide] | < 500 | < 500 |
| CCNC(=O)C[C@@H]1N=C(c2ccc(N3CCC(CN4CC(Oc5ncc(C(=O)N[C@H]6C(C)(C)[C@H](Oc7ccc(C#N)c(Cl)c7)C6(C)C)cn5)C4)CC3)cc2)c2c(sc(C)c2C)-n2c(C)nnc21 [Compound I-124] | 500 to 1500 | < 500 |
| CCNC(=O)C[C@@H]1N=C(c2ccc(OCCCC#Cc3ncc(C(=O)N[C@H]4C(C)(C)[C@H](Oc5ccc(C#N)c(Cl)c5)C4(C)C)cn3)cc2)c2c(sc(C)c2C)-n2c(C)nnc21 [Compound I-83] | 500 to 1500 | < 500 |
| Cc1sc2c(c1C)C(c1ccc(C[C@H]3C[C@@H]([C@@H]4CCCN(c5ncc(C(=O)N[C@H]6C(C)(C)[C@H](Oc7ccc(C#N)c(Cl)c7)C6(C)C)cn5)C4)C3)cc1)=N[C@@H](Cc1ncco1)c1nnc(C)n1-2 [Compound I-161] | < 500 | < 500 |
| Cc1sc2c(c1C)C(c1ccc(N3CC(C4CCN(c5ncc(C(=O)N[C@H]6C(C)(C)[C@H](Oc7ccc(C#N)c(Cl)c7)C6(C)C)cn5)CC4)C3)cc1)=N[C@@H](C)c1nnc(C)n1-2 [Compound I-271] | 500 to 1500 | < 500 |
| Cc1sc2c(c1C)C(c1ccc(N3CC(CC4CCN(c5ncc(C(=O)N[C@H]6C(C)(C)[C@H](Oc7ccc(C#N)c(Cl)c7)C6(C)C)cn5)CC4)C3)cc1)=N[C@@H](C)c1nnc(C)n1-2 [Compound I-270] | < 500 | < 500 |
| Cc1sc2c(c1C)C(c1ccc(CCC3CC4(CCCN(c5ncc(C(=O)N[C@H]6C(C)(C)[C@H](Oc7ccc(C#N)c(Cl)c7)C6(C)C)cn5)C4)C3)cc1)=N[C@@H](Cc1ncco1)c1nnc(C)n1-2 [Compound I-241] | < 500 | < 500 |
| Cc1sc2c(c1C)C(c1ccc(CC3CC4(CCN(c5ncc(C(=O)N[C@H]6C(C)(C)[C@H](Oc7ccc(C#N)c(Cl)c7)C6(C)C)cn5)CC4)C3)cc1)=N[C@@H](C)c1nnc(C)n1-2 [Compound I-436] | < 500 | < 500 |
| CCNC(=O)C[C@@H]1N=C(c2ccc(N3CCC(N(C)C4CN(c5ncc(C(=O)N[C@H]6C(C)(C)[C@H](Oc7ccc(C#N)c(Cl)c7)C6(C)C)cn5)C4)CC3)cc2)c2c(sc(C)c2C)-n2c(C)nnc21 [Compound I-123] | < 500 | < 500 |

More lines, main results first:

| GI50 [2] [nM] | SMILES | GI50 [1] [nM] |
| --- | --- | --- |
| < 500 | CCNC(=O)C[C@@H]1N=C(c2ccc(N(C)C3CN(CC4CCN(c5ncc(C(=O)N[C@H]6C(C)(C)[C@H](Oc7ccc(C#N)c(Cl)c7)C6(C)C)cn5)CC4)C3)cc2)c2c(sc(C)c2C)-n2c(C)nnc21 [Compound I-119] | < 500 |
| 500 to 1500 | CCNC(=O)C[C@@H]1N=C(c2ccc(OC3CCN(c4ncc(C(=O)N[C@H]5C(C)(C)[C@H](Oc6ccc(C#N)c(Cl)c6)C5(C)C)cn4)CC3)cc2)c2c(sc(C)c2C)-n2c(C)nnc21 [Compound I-61] | < 500 |
| 500 to 1500 | CCN(C)C(=O)C[C@@H]1N=C(c2ccc(OCCOC3CCN(c4ncc(C(=O)N[C@H]5C(C)(C)[C@H](Oc6ccc(C#N)c(Cl)c6)C5(C)C)cn4)CC3)cc2)c2c(sc(C)c2C)-n2c(C)nnc21 [Compound I-66] | < 500 |
| < 500 | CCNC(=O)C[C@@H]1N=C(c2ccc(OCCOC3CCN(c4ncc(C(=O)N[C@H]5C(C)(C)[C@H](Oc6ccc(C#N)c(Cl)c6)C5(C)C)cn4)CC3)cc2F)c2c(sc(C)c2C)-n2c(C)nnc21 [Compound I-75] | < 500 |
| 500 to 1500 | CCNC(=O)C[C@@H]1N=C(c2cccc(OCCOC3CCN(c4ncc(C(=O)N[C@H]5C(C)(C)[C@H](Oc6ccc(C#N)c(Cl)c6)C5(C)C)cn4)CC3)c2)c2c(sc(C)c2C)-n2c(C)nnc21 [Compound I-46, N-((1r,3r)-3-(3-chloro-4-cyanophenoxy)-2,2,4,4-tetramethylcyclobutyl)-2-(4-(2-(3-((S)-6-(2-(ethylamino)-2-oxoethyl)-2,3,9-trimethyl-6H-thieno[3,2-f][1,2,4]triazolo[4,3-a][1,4]diazepin-4-yl)phenoxy)ethoxy)piperidin-1-yl)pyrimidine-5-carboxamide] | < 500 |
| < 500 | CCNC(=O)C[C@@H]1N=C(c2ccc(OC3CCN(C4CCN(c5ncc(C(=O)N[C@H]6C(C)(C)[C@H](Oc7ccc(C#N)c(Cl)c7)C6(C)C)cn5)CC4)C3)cc2)c2c(sc(C)c2C)-n2c(C)nnc21 (stereo partly drawn) [Compound I-85] | < 500 |
| < 500 | Cc1sc2c(c1C)C(c1ccc(OCCOC3CCN(c4ncc(C(=O)N[C@H]5C(C)(C)[C@H](Oc6ccc(C#N)c(Cl)c6)C5(C)C)cn4)CC3)cc1)=N[C@@H](CC(=O)OC(C)(C)C)c1nnc(C)n1-2 [Compound I-235, tert-butyl 2-((S)-4-(4-(2-((1-(5-(((1r,3r)-3-(3-chloro-4-cyanophenoxy)-2,2,4,4-tetramethylcyclobutyl)carbamoyl)pyrimidin-2-yl)piperidin-4-yl)oxy)ethoxy)phenyl)-2,3,9-trimethyl-6H-thieno[3,2-f][1,2,4]triazolo[4,3-a][1,4]diazepin-6-yl)acetate] | < 500 |
| 500 to 1500 | Cc1sc2c(c1C)C(c1ccc(CCCOC3CCN(c4ncc(C(=O)N[C@H]5C(C)(C)[C@H](Oc6ccc(C#N)c(Cl)c6)C5(C)C)cn4)CC3)cc1)=N[C@@H](CC(=O)NC(C)C)c1nnc(C)n1-2 [Compound I-100] | < 500 |
| < 500 | CCNC(=O)C[C@@H]1N=C(c2ccc(OCC3CN(c4ncc(C(=O)N[C@H]5C(C)(C)[C@H](Oc6ccc(C#N)c(Cl)c6)C5(C)C)cn4)C3)cc2)c2c(sc(C)c2C)-n2c(C)nnc21 [Compound I-71] | < 500 |
| < 500 | CCNC(=O)C[C@@H]1N=C(c2ccc(CCCN(C)c3ncc(C(=O)N[C@H]4C(C)(C)[C@H](Oc5ccc(C#N)c(Cl)c5)C4(C)C)cn3)cc2)c2c(sc(C)c2C)-n2c(C)nnc21 [Compound I-104] | < 500 |
| 500 to 1500 | COCC[C@@H]1N=C(c2ccc(CCCOC3CCN(c4ncc(C(=O)N[C@H]5C(C)(C)[C@H](Oc6ccc(C#N)c(Cl)c6)C5(C)C)cn4)CC3)cc2)c2c(sc(C)c2C)-n2c(C)nnc21 [Compound I-227, N-[3-(3-chloro-4-cyano-phenoxy)-2,2,4,4-tetramethyl-cyclobutyl]-2-[4-[3-[4-[(9S)-9-(2-methoxyethyl)-4,5,13-trimethyl-3-thia-1,8,11,12-tetrazatricyclo[8.3.0.02,6]trideca-2(6),4,7,10,12-pentaen-7-yl]phenyl]propoxy]-1-piperidyl]pyrimidine-5-carboxamide] | < 500 |
| 500 to 1500 | CCN(C)C(=O)C[C@@H]1N=C(c2ccc(CCCOC3CCN(c4ncc(C(=O)N[C@H]5C(C)(C)[C@H](Oc6ccc(C#N)c(Cl)c6)C5(C)C)cn4)CC3)cc2)c2c(sc(C)c2C)-n2c(C)nnc21 [Compound I-101] | < 500 |
